# Data taken from patent US4359468A, “Antiallergic N-[4-(indolyl)-piperidino-alkyl]-benzimidazolones” (Boehringer Ingelheim Ltd., priority 1981, dated 1982).
# Experiments:
# [1] = system: passive cutaneous anaphylaxis skin reaction in rats (anti-OA reaginic serum, ovalbumin challenge); assay: Rat Passive Cutaneous Anaphylaxis (PCA) Test; format: in vivo; settings: male CD rats, 50 percent reduction in area, i.v. or oral, route not given
# Method: Rat Passive Cutaneous Anaphylaxis (PCA) Test
# The test used was essentially that described by El-Azab, J. and Stewart, P. B., "Pharmacological Profile of a New Anti-Allergic Compound PRD-92-EA." Int. Archs. Allergy Appl. Immunol. 55: 350-361, 1977;
# A dilution of anti-OA reaginic serum was used to give reproducible skin reactions with diameters between 10-15 mm in unsensitized rats. This anti-serum dilution was injected in a volume of 0.1 ml intradermally on each side of the shaved backs of male CD rats (150-160 gm) before antigen challenge. Test compounds which were evaluated by the intravenous (i.v.) route were dissolved in water, and mixed with 0.5 ml of a solution containing 5 mg ovalbumin and 2 percent Evans Blue and administered at a volume of 1 ml/kg. […]
# Thirty minutes after antigenic challenge, i.e. for either intravenous or oral administration, the rats were killed by CO2 asphyxiation. A midline incision was made along the spine and the skin was reflected and the diameter of the blued areas were measured in millimeters. The mean area in square millimeters was determined for each spot and the mean circular area of that test group was calculated. The mean area in square millimeters of an untreated control group was considered as a 100 percent response, and the results of the test compound groups were expressed as a percent change from the control values. […]
# [2] = system: histamine-induced blueing in rat skin; assay: In Vivo Inhibition of Histamine-Induced Blueing in Rat Skin; settings: po, male CD rats, 50 percent reduction in blue-spotted area, p.o., 3 μg histamine intradermal, read-out: ED50 Antihist.
# Method: In Vivo Inhibition of Histamine-Induced Blueing in Rat Skin
# Male CD rats (150-160 gm) were divided into two groups. The hair was removed from an area of the back with an electric clipper. An untreated control group received 10 ml/kg, p.o. of normal saline in 1 percent acacia. Experimental groups received test compound suspended in 1 percent acacia at a volume of 10 ml/kg, p.o. Two percent Evans Blue dye in normal saline in a volume of 0.5 ml was administered intravenously to all animals. Twenty minutes following administration of the test compound or vehicle, 3 μg of histamine diphosphate in 0.1 ml of normal saline was injected intradermally in two sites of the shaved area on the backs of the rats. Fifteen minutes following histamine injection, all rats were killed by CO2 asphyxiation.
# An incision was made along the spine and the skin cleanly separated. The dorsal skin was reflected and the diameters of the blue-spotted wheals were measured. The area in square millimeters was determined for each resulting blue spot and the mean area for the control and test groups were calculated. The mean area for the control group was considered as a 100 percent response. Test group results were expressed as a percentage change from control. An ED50 (i.e., defined as a 50 percent reduction in blue-spotted area) was determined by linear regression analysis.
# [3] = system: mast cells; assay: Inhibition of Peritoneal Mast Cell Degranulation (MCD) in Rats Passively Sensitized with OA Antiserum or Induced by Compound 48/80; format: in vivo, rat; settings: male CD rats, OA antiserum or Compound 48/80, i.v., i.p. or p.o., route not given
# Method: Inhibition of Peritoneal Mast Cell Degranulation (MCD) in Rats Passively Sensitized with OA Antiserum or Induced by Compound 48/80
# This test was adapted from that described by Mota, I. and Osler, A. G. "Mast Cell Degranulation,"
# Male CD rats (150-160 gm) were divided into 5 groups as follows:
# Group I: Nonspecific MCD control (3 rats)
# Group II: Positive MCD control (5 rats)
# Groups III, IV, V: Positive MCD following test compound (5 rats each)
# Group I was injected intraperitoneally with 3 ml of normal rat serum. Groups II through V were intraperitoneally administered 3 ml of an antiserum predetermined to produce a 60-80 percent greater degranulation than normal rat serum. Eighteen to 24 hours later, test compound was administered (i.e., i.v. immediately, i.p. 5 minutes, or p.o. 20 minutes) before i.p. antigen challenge with 0.5 mg/kg of 2×crystalline ovalbumin in a concentration of 0.005 percent saline. Fifteen minutes after challenge, the rats were killed by asphyxiation with CO2. […]
# Microscopic slides of the mesentery were prepared and analyzed by a modification of the method by Fugner, A. "An Improved Method for the Study of Reaginmediated Mast Cell Degranulation in Rats," Experientia, 29: 708, 1973, […]
# The results were calculated and expressed as percent of inhibition of degranulation as follows: [formula]
SMILES,ED50 [1] [mg/kg],ED50 [2] [mg/kg],"ED50 ([3]; Rattus norvegicus, Mast cell) [mg/kg]",ED50 MCD [3]
"O=c1[nH]c2ccccc2n1CCCN1CCC(c2c[nH]c3ccccc23)CC1 [Example 4, N-{3-[4-(3-indolyl)-piperidino]-propyl}-benzimidazolone]",1.6,8.7,3 to 6.4,
O=c1[nH]c2ccccc2n1CCCN1CCN(C(c2ccccc2)c2ccccc2)CC1 [Oxatomide],8.3,8.1,,neg.
